According to ChEMBL document CHEMBL4393657, “Tetrazole hybrids and their antifungal activities” (2019):
In brackets after ≈: the same amount, converted by molar mass.

How the values were obtained:
Type in all cases: functional
[1] = system: Pichia kudriavzevii; assay: Antifungal activity against Candida krusei assessed as reduction in fungal cell growth incubated for 24 hrs by broth microdilution method
[2] = system: Candida tropicalis; assay: Antifungal activity against Candida tropicalis assessed as reduction in fungal cell growth incubated for 24 hrs by broth microdilution method
[3] = system: Nakaseomyces glabratus; assay: Antifungal activity against Candida glabrata assessed as reduction in fungal cell growth incubated for 24 hrs by broth microdilution method
[4] = system: Candida albicans; assay: Antifungal activity against Candida albicans assessed as reduction in fungal cell growth incubated for 24 hrs by broth microdilution method
[5] = system: Candida albicans; assay: Antifungal activity against Candida albicans
[6] = system: Nakaseomyces glabratus; assay: Antifungal activity against Candida glabrata ATCC 36583 by broth microdilution method
[7] = system: Candida tropicalis; assay: Antifungal activity against Candida tropicalis by broth microdilution method
[8] = system: Fusarium graminearum; assay: Antifungal activity against Gibberella zeae assessed as inhibition of growth at 50 ug/ml; conditions: read-out: GI
[9] = system: Ceratobasidium cereale; assay: Antifungal activity against Rhizoctonia cerealis assessed as inhibition of growth at 50 ug/ml; conditions: read-out: GI
[10] = Antifungal activity against Pellicularia sasakii assessed as inhibition of growth at 50 ug/ml; conditions: read-out: GI
[11] = system: Botryosphaeria berengeriana; assay: Antifungal activity against Physalospora pyricola assessed as inhibition of growth at 50 ug/ml; conditions: read-out: GI
[12] = system: Mycosphaerella arachidis; assay: Antifungal activity against Cercospora arachidicola assessed as inhibition of growth at 50 ug/ml; conditions: read-out: GI
[13] = system: Alternaria solani; assay: Antifungal activity against Alternaria solani assessed as inhibition of growth at 50 ug/ml; conditions: read-out: GI
[14] = system: Sclerotinia sclerotiorum; assay: Antifungal activity against Sclerotinia sclerotiorum assessed as inhibition of growth at 50 ug/ml; conditions: read-out: GI
[15] = system: Phytophthora infestans; assay: Antifungal activity against Phytophthora infestans assessed as inhibition of growth at 50 ug/ml; conditions: read-out: GI
[16] = system: Botrytis cinerea; assay: Antifungal activity against Botrytis cinerea assessed as inhibition of growth at 50 ug/ml; conditions: read-out: GI
[17] = system: Candida albicans; assay: Antifungal activity against Candida albicans MTCC 227 assessed as reduction in fungal cell growth incubated for 24 and 48 hrs by broth microdilution method
[18] = system: Candida albicans; assay: Potency index, ratio for MIC of griseofulvin to MIC of compound for antifungal activity against Candida albicans MTCC 227 assessed as reduction in fungal cell growth incubated for 24 and 48 hrs by broth microdilution method
[19] = system: Aspergillus fumigatus; assay: Antifungal activity against Aspergillus fumigatus assessed as reduction in fungal cell growth incubated for 24 and 48 hrs by broth microdilution method
[20] = system: Candida tropicalis; assay: Potency index, ratio for MIC of fluconazole to MIC of compound for Antifungal activity against Candida tropicalis assessed as reduction in fungal cell growth incubated for 48 hrs by broth microdilution method
[21] = system: Candida albicans; assay: Antifungal activity against Candida albicans assessed as reduction in fungal cell growth incubated for 48 hrs by broth microdilution method
[22] = system: Candida tropicalis; assay: Antifungal activity against Candida tropicalis assessed as reduction in fungal cell growth incubated for 48 hrs by broth microdilution method
[23] = system: Aspergillus niger; assay: Potency index, ratio for MIC of fluconazole to MIC of compound for antifungal activity against Aspergillus niger
[24] = system: Candida parapsilosis; assay: Potency index, ratio for MIC of fluconazole to MIC of compound for Antifungal activity against Candida parapsilosis ATCC 22019 assessed as reduction in fungal cell growth incubated for 48 hrs by broth microdilution method
[25] = system: Aspergillus niger; assay: Antifungal activity against Aspergillus niger assessed as reduction in fungal cell growth incubated for 72 hrs by broth microdilution method
[26] = system: Candida albicans; assay: Potency index, ratio for MIC of fluconazole to MIC of compound for antifungal activity against Candida albicans V-01-191A-261 assessed as reduction in fungal cell growth incubated for 48 hrs by broth microdilution method
[27] = system: Nakaseomyces glabratus; assay: Antifungal activity against Candida glabrata assessed as reduction in fungal cell growth incubated for 48 hrs by broth microdilution method
[28] = system: Nakaseomyces glabratus; assay: Potency index, ratio for MIC of fluconazole to MIC of compound for antifungal activity against Candida glabrata assessed as reduction in fungal cell growth incubated for 48 hrs by broth microdilution method
[29] = system: Candida parapsilosis; assay: Antifungal activity against Candida parapsilosis ATCC 22019 assessed as reduction in fungal cell growth incubated for 48 hrs by broth microdilution method; conditions: Lodderomyces parapsilosis, ATCC 22019, 48 h
[30] = system: Cryptococcus neoformans; assay: Potency index, ratio for MIC of fluconazole to MIC of compound for antifungal activity against Cryptococcus neoformans LA314 assessed as reduction in fungal cell growth incubated for 48 hrs by broth microdilution method
[31] = system: Cryptococcus neoformans; assay: Antifungal activity against Cryptococcus neoformans LA314 assessed as reduction in fungal cell growth incubated for 48 hrs by broth microdilution method; conditions: LA314, 48 h
[32] = system: Pichia kudriavzevii; assay: Antifungal activity against Candida krusei assessed as reduction in fungal cell growth incubated for 48 hrs by broth microdilution method
[33] = system: Candida albicans; assay: Antifungal activity against Candida albicans MTCC 227 assessed as reduction in fungal cell growth incubated for 24 hrs by broth microdilution method; conditions: MTCC 227, 24 h
[34] = system: Nakaseomyces glabratus; assay: Antifungal activity against Candida glabrata NCIM 3236 assessed as reduction in fungal cell growth incubated for 24 hrs by broth microdilution method; conditions: NCIM 3236, 24 h
[35] = system: Candida albicans; assay: Antifungal activity against Candida albicans MTCC183 assessed as reduction in fungal cell growth incubated for 24 to 48 hrs
[36] = system: Aspergillus niger; assay: Antifungal activity against Aspergillus niger MTCC281 assessed as reduction in fungal cell growth incubated for 24 to 48 hrs
[37] = system: Saccharomyces cerevisiae; assay: Antifungal activity against Saccharomyces cerevisiae
[38] = system: Aspergillus fumigatus; assay: Antifungal activity against Aspergillus fumigatus
[39] = system: Aspergillus niger; assay: Antifungal activity against Aspergillus niger
[40] = system: Aspergillus fumigatus; assay: Antifungal activity against Aspergillus fumigatus assessed as inhibition zone at 1 ug/ml incubated for 24 to 72 hrs by disk diffusion method
[41] = system: Aspergillus niger; assay: Antifungal activity against Aspergillus niger assessed as inhibition zone at 1 ug/ml incubated for 24 to 72 hrs by disk diffusion method
[42] = system: Aspergillus flavus; assay: Antifungal activity against Aspergillus flavus assessed as inhibition zone at 1 ug/ml incubated for 24 to 72 hrs by disk diffusion method
[43] = system: Candida albicans; assay: Antifungal activity against Candida albicans ATCC 885653 assessed as inhibition zone at 100 ug/ml incubated for 48 to 72 hrs by agar-diffusion method
[44] = system: Trichoderma harzianum; assay: Antifungal activity against Trichoderma harzianum assessed as inhibition zone at 1 ug/ml incubated for 24 to 72 hrs by disk diffusion method
[45] = system: Aspergillus fumigatus; assay: Antifungal activity against Aspergillus fumigatus NCIM 902 assessed as inhibition zone at 10 ug/ml incubated for 3 to 4 days by disk diffusion method; conditions: read-out: IZ
[46] = system: Candida albicans; assay: Antifungal activity against Candida albicans NCCS 3471 assessed as inhibition zone at 50 ug/ml by disk diffusion method; conditions: read-out: IZ
[47] = system: Candida albicans; assay: Antifungal activity against Candida albicans NCCS 3471 assessed as inhibition zone at 10 ug/ml incubated for 3 to 4 days by disk diffusion method; conditions: read-out: IZ
[48] = system: Aspergillus niger; assay: Antifungal activity against Aspergillus niger assessed as inhibition zone at 50 ug/ml by disk diffusion method; conditions: read-out: IZ
[49] = system: Candida albicans; assay: Antifungal activity against Candida albicans TA
[50] = system: Candida albicans; assay: In vivo antifungal activity against Candida albicans TA infected in CDF-1 mouse dosed orally assessed as survival of mouse; conditions: po
[51] = system: Candida albicans; assay: Potency index, ratio for MIC of fluconazole to MIC of compound for antifungal activity against Candida albicans TA

Fc1cc2[nH]c(SCc3ccc(-c4ccccc4-c4nnnn4C(c4ccccc4)(c4ccccc4)c4ccccc4)cc3)nc2cc1-n1cncn1
MIC [1]: 4 to 8 µg/mL (≈ 5.62 to 11.2 µM)
MIC [2]: 4 to 8 µg/mL (≈ 5.62 to 11.2 µM)
MIC [3]: 4 to 8 µg/mL (≈ 5.62 to 11.2 µM)
MIC [4]: 4 to 8 µg/mL (≈ 5.62 to 11.2 µM)

Cn1c(-c2ccc(NC(=O)CSc3nnnn3-c3ccccc3)cc2)nc2cc(Cl)c(Cl)cc21
MIC [5]: 25 to 50 µg/mL (≈ 49 to 98 µM)
MIC [6]: 25 to 50 µg/mL (≈ 49 to 98 µM)
MIC [7]: 25 to 50 µg/mL (≈ 49 to 98 µM)

Cc1snnc1C(Nc1ccc([N+](=O)[O-])cc1)c1nnnn1C1CCCCC1 (stereo not given)
inhibition of growth at 50 µg/mL [8]: 20 to 65.4%
inhibition of growth at 50 µg/mL [9]: 20 to 65.4%
inhibition of growth at 50 µg/mL [10]: 20 to 65.4%
inhibition of growth at 50 µg/mL [11]: 20 to 65.4%
inhibition of growth at 50 µg/mL [12]: 20 to 65.4%
inhibition of growth at 50 µg/mL [13]: 20 to 65.4%
inhibition of growth at 50 µg/mL [14]: 20 to 65.4%
inhibition of growth at 50 µg/mL [15]: 20 to 65.4%
inhibition of growth at 50 µg/mL [16]: 20 to 65.4%

Cc1ccc2[nH]c(-c3cc4cc(Cl)ccc4n4nnnc34)nc2c1
MIC [17]: 125 µg/mL (≈ 373 µM)
Ratio [18]: 4
MIC [19]: 125 to 1000 µg/mL (≈ 373 to 2990 µM)

Fc1cc2nc(SCc3ccc(-c4ccccc4-c4nnnn4C(c4ccccc4)(c4ccccc4)c4ccccc4)cc3)[nH]c2cc1-n1ccnc1
MIC [1]: 8 to 16 µg/mL (≈ 11.3 to 22.5 µM)
MIC [2]: 8 to 16 µg/mL (≈ 11.3 to 22.5 µM)
MIC [3]: 8 to 16 µg/mL (≈ 11.3 to 22.5 µM)
MIC [4]: 8 to 16 µg/mL (≈ 11.3 to 22.5 µM)

C[C@H](n1nnnc1CCN1CCN(c2cccc(C(F)(F)F)c2)CC1)[C@](O)(Cn1cncn1)c1ccc(F)cc1F
Ratio [20]: 16
MIC [21]: 0.12 to 16 µg/mL (≈ 0.208 to 27.7 µM)
MIC [22]: 0.12 to 1 µg/mL (≈ 0.208 to 1.73 µM)
Ratio [23]: 16
Ratio [24]: 16
MIC [25]: 0.12 to 1 µg/mL (≈ 0.208 to 1.73 µM)
Ratio [26]: 16
MIC [27]: 0.12 to 1 µg/mL (≈ 0.208 to 1.73 µM)
Ratio [28]: 16
MIC [29]: 0.12 to 1 µg/mL (≈ 0.208 to 1.73 µM)
Ratio [30]: 16
MIC [31]: 0.12 to 1 µg/mL (≈ 0.208 to 1.73 µM)
MIC [32]: 0.12 to 1 µg/mL (≈ 0.208 to 1.73 µM)

Clc1ccc(COC(Cn2ccnc2)c2ccc(Cl)cc2Cl)c(Cl)c1 (stereo not given) [MICONAZOLE]
MIC [33]: 12.5 µg/mL (≈ 30 µM)
MIC [34]: 400 µg/mL (≈ 961 µM)
MIC [35]: 25 µg/mL (≈ 60.1 µM)
MIC [36]: 12.5 µg/mL (≈ 30 µM)

O=C(/C=C/c1ccc([N+](=O)[O-])cc1)c1ccc(-n2nnnc2-c2nc(-c3nnnn3-c3ccc(C(=O)/C=C/c4ccc([N+](=O)[O-])cc4)cc3)nc(-c3nnnn3-c3ccc(C(=O)/C=C/c4ccc([N+](=O)[O-])cc4)cc3)n2)cc1
MIC [5]: < 2.5 µg/mL
MIC [37]: < 2.5 µg/mL
MIC [38]: < 2.5 µg/mL
MIC [39]: < 2.5 µg/mL

NYSTATIN
inhibition zone (IZ) [40]: 2.4 to 2.8 mm
inhibition zone (IZ) [41]: 2.4 to 2.8 mm
MIC [17]: 100 µg/mL
inhibition zone (IZ) [42]: 2.4 to 2.8 mm
inhibition zone (IZ) [43]: 21 mm
inhibition zone (IZ) [44]: 2.4 to 2.8 mm

CC(=O)N1CCN(c2ccc(OCC3COC(Cn4ccnc4)(c4ccc(Cl)cc4Cl)O3)cc2)CC1 (stereo not given) [KETOCONAZOLE]
zone of inhibition at 10 µg/mL [45]: 23 mm
zone of inhibition at 50 µg/mL [46]: 26 mm
zone of inhibition at 10 µg/mL [47]: 24 mm
MIC [5]: 25 to 50 µg/mL (≈ 47 to 94.1 µM)
MIC [6]: 25 to 50 µg/mL (≈ 47 to 94.1 µM)
zone of inhibition at 50 µg/mL [48]: 23 mm
MIC [7]: 25 to 50 µg/mL (≈ 47 to 94.1 µM)

C[C@@H](n1cnnn1)[C@](O)(Cn1cncn1)c1ccc(F)cc1F
MIC [49]: 12.5 µg/mL (≈ 38.9 µM)
ED50 [50]: 0.18 mg/kg
Ratio [51]: 8
